Assays:
Assay type in all cases: functional
A498 = test: Cytotoxicity against Homo sapiens (human) A498 cells after 48 hr by sulforhodamine B assay; conditions: A498, 48 h
ACHN = test: Cytotoxicity against Homo sapiens (human) ACHN cells after 48 hr by sulforhodamine B assay
786-0 = test: Cytotoxicity against Homo sapiens (human) 786-0 cells after 48 hr by sulforhodamine B assay; conditions: 786-0, 48 h
SK-OV-3 = test: Cytotoxicity against Homo sapiens (human) SKOV3 cells after 48 hr by sulforhodamine B assay; conditions: SK-OV-3, 48 h
OVCAR-4 = test: Cytotoxicity against Homo sapiens (human) OVCAR4 cells after 48 hr by sulforhodamine B assay; conditions: OVCAR-4, 48 h
IGROV-1 = test: Cytotoxicity against Homo sapiens (human) IGROV1 cells after 48 hr by sulforhodamine B assay; conditions: IGROV-1, 48 h
OVCAR-3 = test: Cytotoxicity against Homo sapiens (human) OVCAR3 cells after 48 hr by sulforhodamine B assay; conditions: OVCAR-3, 48 h
UACC-62 = test: Cytotoxicity against Homo sapiens (human) UACC62 cells after 48 hr by sulforhodamine B assay; conditions: UACC-62, 48 h
SK-MEL-5 = test: Cytotoxicity against Homo sapiens (human) SK-MEL-5 cells after 48 hr by sulforhodamine B assay; conditions: SK-MEL-5, 48 h
SK-MEL-2 = test: Cytotoxicity against Homo sapiens (human) SK-MEL-2 cells after 48 hr by sulforhodamine B assay; conditions: SK-MEL-2, 48 h
LOX IMVI = test: Cytotoxicity against Homo sapiens (human) LOXIMVI cells after 48 hr by sulforhodamine B assay
SF-539 = test: Cytotoxicity against Homo sapiens (human) SF539 cells after 48 hr by sulforhodamine B assay; conditions: SF-539, 48 h
T47D = test: Cytotoxicity against Homo sapiens (human) T47D cells after 48 hr by sulforhodamine B assay
MDA-MB-231 = test: Cytotoxicity against Homo sapiens (human) MDA-MB-231 cells after 48 hr by sulforhodamine B assay; conditions: MDA-MB-231, 48 h
DU-145 = test: Cytotoxicity against Homo sapiens (human) DU145 cells after 48 hr by sulforhodamine B assay; conditions: DU-145, 48 h
UO-31 = test: Cytotoxicity against Homo sapiens (human) UO31 cells after 48 hr by sulforhodamine B assay; conditions: UO-31, 48 h
PC-3 = test: Cytotoxicity against Homo sapiens (human) PC3 cells after 48 hr by sulforhodamine B assay; conditions: PC-3, 48 h
RXF 393 = test: Cytotoxicity against Homo sapiens (human) RXF393 cells after 48 hr by sulforhodamine B assay; conditions: RXF 393, 48 h
SF-295 = test: Cytotoxicity against Homo sapiens (human) SF295 cells after 48 hr by sulforhodamine B assay; conditions: SF-295, 48 h
SW-620 = test: Cytotoxicity against Homo sapiens (human) SW620 cells after 48 hr by sulforhodamine B assay; conditions: SW-620, 48 h
KM12 = test: Cytotoxicity against Homo sapiens (human) KM12 cells after 48 hr by sulforhodamine B assay; conditions: KM12, 48 h
HCT-15 = test: Cytotoxicity against Homo sapiens (human) HCT15 cells after 48 hr by sulforhodamine B assay; conditions: HCT-15, 48 h
HCT-116 = test: Cytotoxicity against Homo sapiens (human) HCT116 cells after 48 hr by sulforhodamine B assay; conditions: HCT-116, 48 h
HCC 2998 = test: Cytotoxicity against Homo sapiens (human) HCC2998 cells after 48 hr by sulforhodamine B assay; conditions: HCC 2998, 48 h
NCI-H322M = test: Cytotoxicity against Homo sapiens (human) NCI-H322M cells after 48 hr by sulforhodamine B assay
HOP-62 = test: Cytotoxicity against Homo sapiens (human) HOP62 cells after 48 hr by sulforhodamine B assay; conditions: HOP-62, 48 h
EKVX = test: Cytotoxicity against Homo sapiens (human) EKVX cells after 48 hr by sulforhodamine B assay
A549 = test: Cytotoxicity against Homo sapiens (human) A549 cells after 48 hr by sulforhodamine B assay; conditions: A549, 48 h
RPMI-8226 = test: Cytotoxicity against Homo sapiens (human) RPMI8226 cells after 48 hr by sulforhodamine B assay; conditions: RPMI-8226, 48 h
MOLT-4 = test: Cytotoxicity against Homo sapiens (human) MOLT4 cells after 48 hr by sulforhodamine B assay; conditions: MOLT-4, 48 h
CCRF-CEM = test: Cytotoxicity against Homo sapiens (human) CCRF-CEM cells after 48 hr by sulforhodamine B assay
SF-268 = test: Cytotoxicity against Homo sapiens (human) SF268 cells assessed as cell growth at 10^-4 M after 48 hr by […] assay; conditions: SF-268, 48 h, read-out: Activity
[1] = read-out: LC50 (the source's name)

Q: `ClCc1ccc(Cn2cnc3c(Cl)nc(Cl)nc32)cc1` was tested. Which GI50 (A498) did it give?
A: 12 µM

Q: And the LC50 (lethal concentration, 50% cell kill) (A498)?
A: 52.5 µM

Q: What about the TGI (A498) of the same compound?
A: 25.1 µM

Q: And the GI50 (ACHN)?
A: 2.34 µM

Q: What about the TGI (ACHN) of the same compound?
A: 5.25 µM

Q: And the CC50 (ACHN; [1])?
A: 14.8 µM

Q: And the GI50 (786-0)?
A: 14.1 µM

Q: What about the LC50 (786-0) of the same compound?
A: 61.7 µM

Q: And the TGI (786-0)?
A: 29.5 µM

Q: What about the GI50 (SK-OV-3) of the same compound?
A: 13.5 µM

Q: What about the LC50 (SK-OV-3) of the same compound?
A: 66.1 µM

Q: And the TGI (SK-OV-3)?
A: 29.5 µM

Q: And the GI50 (OVCAR-4)?
A: 4.9 µM

Q: And the LC50 (concentration killing 50% of cells) (OVCAR-4)?
A: 61.7 µM

Q: What about the TGI (OVCAR-4) of the same compound?
A: 18.6 µM

Q: And the GI50 (IGROV-1)?
A: 15.1 µM

Q: And the LC50 (IGROV-1)?
A: 60.3 µM

Q: What about the TGI (IGROV-1) of the same compound?
A: 30.2 µM

Q: What about the GI50 (OVCAR-3) of the same compound?
A: 2 µM

Q: And the LC50 (OVCAR-3)?
A: 9.55 µM

Q: What about the TGI (OVCAR-3) of the same compound?
A: 4.37 µM

Q: What about the GI50 (UACC-62) of the same compound?
A: 2.04 µM

Q: And the LC50 (concentration causing 50% net cell kill) (UACC-62)?
A: 9.33 µM

Q: What about the TGI (UACC-62) of the same compound?
A: 4.37 µM

Q: What about the GI50 (SK-MEL-5) of the same compound?
A: 6.46 µM

Q: And the LC50 (SK-MEL-5)?
A: 44.7 µM

Q: And the TGI (SK-MEL-5)?
A: 19.1 µM

Q: And the GI50 (SK-MEL-2)?
A: 19.9 µM

Q: What about the LC50 (concentration killing 50% of cells) (SK-MEL-2) of the same compound?
A: 95.5 µM

Q: And the TGI (SK-MEL-2)?
A: 43.6 µM

Q: And the GI50 (LOX IMVI)?
A: 2.04 µM

Q: What about the LC50 (LOX IMVI) of the same compound?
A: 8.32 µM

Q: What about the TGI (LOX IMVI) of the same compound?
A: 4.17 µM

Q: And the GI50 (SF-539)?
A: 17 µM

Q: And the LC50 (concentration killing 50% of cells) (SF-539)?
A: 56.2 µM

Q: What about the TGI (SF-539) of the same compound?
A: 30.9 µM

Q: And the GI50 (T47D)?
A: 1.38 µM

Q: What about the LC50 (T47D) of the same compound?
A: > 100 µM

Q: What about the TGI (T47D) of the same compound?
A: 5.5 µM

Q: And the GI50 (MDA-MB-231)?
A: 1.82 µM

Q: What about the LC50 (MDA-MB-231) of the same compound?
A: 7.24 µM

Q: And the TGI (MDA-MB-231)?
A: 3.63 µM

Q: What about the GI50 (DU-145) of the same compound?
A: 5.62 µM

Q: And the LC50 (DU-145)?
A: 42.7 µM

Q: What about the TGI (DU-145) of the same compound?
A: 17.8 µM

Q: And the GI50 (UO-31)?
A: 19.5 µM

Q: And the LC50 (concentration causing 50% net cell kill) (UO-31)?
A: 66.1 µM

Q: And the TGI (UO-31)?
A: 35.5 µM

Q: What about the GI50 (PC-3) of the same compound?
A: 2.69 µM

Q: And the LC50 (concentration causing 50% cell kill) (PC-3)?
A: 45.7 µM

Q: What about the TGI (PC-3) of the same compound?
A: 7.24 µM

Q: And the GI50 (RXF 393)?
A: 20.9 µM

Q: What about the TGI (RXF 393) of the same compound?
A: 41.7 µM

Q: And the CC50 (RXF 393; [1])?
A: 83.2 µM

Q: What about the GI50 (SF-295) of the same compound?
A: 7.24 µM

Q: What about the TGI (SF-295) of the same compound?
A: 19.5 µM

Q: What about the CC50 (SF-295; [1]) of the same compound?
A: 44.7 µM

Q: And the GI50 (SW-620)?
A: 3.8 µM

Q: And the TGI (SW-620)?
A: 17.4 µM

Q: And the CC50 (SW-620; [1])?
A: 56.2 µM

Q: What about the GI50 (KM12) of the same compound?
A: 1.82 µM

Q: And the TGI (KM12)?
A: 3.24 µM

Q: And the CC50 (KM12; [1])?
A: 5.75 µM

Q: And the GI50 (HCT-15)?
A: 1.86 µM

Q: And the TGI (HCT-15)?
A: 3.8 µM

Q: What about the CC50 (HCT-15; [1]) of the same compound?
A: 7.59 µM

Q: And the GI50 (HCT-116)?
A: 1.7 µM

Q: And the TGI (HCT-116)?
A: 3.63 µM

Q: What about the CC50 (HCT-116; [1]) of the same compound?
A: 7.59 µM

Q: What about the GI50 (HCC 2998) of the same compound?
A: 10.2 µM

Q: What about the TGI (HCC 2998) of the same compound?
A: 24 µM

Q: What about the CC50 (HCC 2998; [1]) of the same compound?
A: 56.2 µM

Q: And the GI50 (NCI-H322M)?
A: 12.6 µM

Q: What about the TGI (NCI-H322M) of the same compound?
A: 25.1 µM

Q: And the CC50 (NCI-H322M; [1])?
A: 50.1 µM

Q: What about the GI50 (HOP-62) of the same compound?
A: 2.19 µM

Q: What about the TGI (HOP-62) of the same compound?
A: 5.13 µM

Q: And the CC50 (HOP-62; [1])?
A: 19.5 µM

Q: What about the GI50 (EKVX) of the same compound?
A: 17.4 µM

Q: What about the TGI (EKVX) of the same compound?
A: 31.6 µM

Q: And the CC50 (EKVX; [1])?
A: 58.9 µM

Q: And the GI50 (A549)?
A: 18.6 µM

Q: And the TGI (A549)?
A: 37.1 µM

Q: And the CC50 (A549; [1])?
A: 74.1 µM

Q: And the GI50 (RPMI-8226)?
A: 1.74 µM

Q: And the TGI (RPMI-8226)?
A: 3.8 µM

Q: What about the GI50 (MOLT-4) of the same compound?
A: 10.5 µM

Q: What about the TGI (MOLT-4) of the same compound?
A: 27.5 µM

Q: And the CC50 (MOLT-4; [1])?
A: 72.4 µM

Q: And the GI50 (CCRF-CEM)?
A: 1.95 µM

Q: And the TGI (CCRF-CEM)?
A: 4.57 µM

Q: And the CC50 (CCRF-CEM; [1])?
A: 14.1 µM

Q: And the growth at 100 µM (SF-268)?
A: 0%
